Where “and” joins values, the source holds several entries; their conditions need not be identical. Identical values can stand only once. Like-named read-outs stand apart in the source and are kept apart here.
Legend:
[1] = tested on: ZIKV-induced cell death in hNPCs; assay: ATP cell viability assay for ZIKV-induced cell death, hNPCs; format: cell-based, human; conditions: ZIKV-infected hNPCs
Experimental: (§1) The reagent was reconstituted and prepared as described by the manufacturer. In order to measure the cell death caused by ZIKV infection, cells were cultured for 16 hours at 37° C. with 5% CO2 in assay plates, followed by the addition of ZIKV solution and incubation at 37° C. with 5% CO2 for 72 hours. ATPlite, the ATP monitoring reagent, was then added to the assay plates and they were incubated for 15 minutes. The resulting luminescence was measured using the ViewLux plate reader (Perkin Elmer). Data were normalized using the wells without cells as a control for 100% cell killing, and cell-containing wells without ZIKV infection were used as full cell viability (0% cell killing).
Human NPCs were seeded onto PDL coated 1536-well assay plates at 250 cells per 3 μl/well and incubated at 37° C. in 5% CO2 for 16 hours. Test compounds dissolved in DMSO were transferred to assay plates at a volume of 23 nl/well by an automated pintool workstation (Wako Automation, San Diego, Calif.). Compounds were incubated with cells for 30 minutes at 37° C. in 5% CO2, immediately followed by the addition of 2 μl/well of ZIKV. Incubation time of compound-treated cells with ZIKV varied based on assay format. Experiments measuring virus-induced caspase 3/7 activity required a 6 hour incubation of ZIKV in the presence compounds at 37° C. in 5% CO2. Following this incubation, 3.5 μl/well of caspase 3/7 reagent mixture was added to assay plates. The plates were incubated for 30 minutes at room temperature, and the resultant luminescence signal was measured using a ViewLux plate reader (Perkin Elmer). Experiments measuring virus-induced cell death required a 72-hour incubation of ZIKV in the presence of compounds at 37° C. in 5% CO2. Following this incubation, 3.5 μl/well of ATP content detection reagent was added to assay plates, incubated for 30 minutes at the room temperature, and the resultant luminescence signal was measured in a ViewLux plate reader.
as §1, with “The ATPlite luminescence assay system assay kit (PerkinElmer) was used to determine cell viability. The reagent” for “The reagent”, “by the manufacture. In order” for “by the manufacturer. In order”, “followed by addition of” for “followed by the addition of”, “plates and incubated for” for “plates and they were incubated for”, “Elmer). Data was normalized using” for “Elmer). Data were normalized using”
Human NPCs were seeded onto PDL coated 1536-well assay plates at 250 cells per 3 μl/well and incubated at 37° C. in 5% CO2 for 16 hours. Test compounds dissolved in DMSO were transferred to assay plates at a volume of 23 nl/well by an automated pintool workstation (Wako Automation, San Diego, Calif.). Compounds were incubated with cells for 30 minutes at 37° C. in 5% CO2, immediately followed by the addition of 2 μl/well of ZIKV. Incubation time of compound-treated cells with ZIKV varied based on assay format. Experiments measuring virus induced caspase 3/7 activity required a 6 hour incubation of ZIKV in the presence compounds at 37° C. in 5% CO2. Following this incubation, 3 μl/well of caspase 3/7 reagent mixture was added to assay plates, incubated for 30 minute at room temperature, and the resultant luminescence signal was measured using a ViewLux plate reader (Perkin Elmer). Experiments measuring the virus induced cell death required a 72 hour incubation of ZIKV in the presence of compounds at 37° C. in 5% CO2. Following this incubation, 3 μl/well of ATP content detection reagent was added to assay plates, incubated for 30 minute at room temperature, and the resultant luminescence signal was measured in a ViewLux plate reader.

[2] = tested on: ZIKV-induced cell death in human astrocytes; assay: ATP cell viability assay for ZIKV-induced cell death, human astrocytes; format: cell-based; conditions: ZIKV-infected human astrocytes
[3] = tested on: ZIKV-induced caspase 3/7 activity in human astrocytes; assay: Caspase 3/7 activity assay, ZIKV-infected human astrocytes; format: cell-based; conditions: for IC50: read-out: Caspase 3 (IC50, uM) Astrocyte; for Emax: read-out: Caspase 3 (efficacy, %) Astrocyte
Outline: (§2)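 Human NPCs, SNB-19 cells or astrocytes seeded 16 h, compound added 30 min before ZIKV, then 6 h infection at 37 °C. Caspase-Glo 3/7 luminescence after 30 min at room temperature, normalized to uninfected cells (0%) and ZIKV-infected cells (100%).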

[4] = tested on: ZIKV-induced caspase 3/7 activity in SNB-19 cells; assay: Caspase 3/7 activity assay, ZIKV-infected SNB-19 cells; format: cell-based
Outline: as §2

[5] = ZIKV-infected SNB-19 cells, read-out: Caspase 3 (IC50, uM) SNB-19
[6] = Astrocyte, ZIKV-infected human astrocytes
[7] = Homo sapiens, ZIKV-infected SNB-19 cells, read-out: Caspase 3 (IC50, uM) SNB-19
[8] = Homo sapiens, ZIKV-infected SNB-19 cells, read-out: Caspase 3 (efficacy, %) SNB-19

Row | Compound | Cell viability (efficacy, %) NPCs [1] [%] | Cell viability (efficacy, %) Astrocyte [2] [%] | Caspase 3 (efficacy, %) Astrocyte ([3]; ZIKV-infected human astrocytes) | IC50 ([3]; ZIKV-infected human astrocytes) | Caspase 3 (efficacy, %) SNB-19 ([4]; ZIKV-infected SNB-19 cells) [%] | IC50 [4, 5] | Emax [3, 6] [%] | IC50 [4, 7] [µM] | Emax [4, 8] [%] | IC50 [3, 6] [µM] | IC50 ([1]; Homo sapiens, read-out: Cell viability (IC50, uM) NPCs) [µM] | IC50 ([2]; Astrocyte, read-out: Cell viability (IC50, uM) Astrocyte) [µM] | IC50 ([3]; Homo sapiens, Astrocyte) [µM] | Emax ([3]; Homo sapiens, Astrocyte) [%] | IC50 ([4]; Homo sapiens, SNB-19, read-out: Caspase 3 (IC50, uM) SNB-19) [µM] | Emax ([4]; Homo sapiens, SNB-19, read-out: Caspase 3 (efficacy, %) SNB-19) [%]
1 | C/C1=C2/[N-][C@H]([C@H](CC(N)=O)[C@@]2(C)CCC(=O)NC[C@@H](C)OP(=O)([O-])O[C@H]2[C@@H](O)[C@@H](n3cnc4cc(C)c(C)cc43)O[C@@H]2CO)[C@]2(C)N=C(/C(C)=C3N=C(/C=C4N=C1[C@@H](CCC(N)=O)C\4(C)C)[C@@H](CCC(N)=O)[C@]\3(C)CC(N)=O)[C@@H](CCC(N)=O)[C@]2(C)CC(N)=O.[Co+3].[OH-] [Hydroxocobalamin] | 0.0 | 0.0 | 83.4% | 0.97 µM | 85.7 | 1.46 µM | – | – | – | – | – | – | – | – | – | –
2 | CCOCCOC(=O)C=Cc1ccc(OC)cc1 [2-Ethoxylethyl-p-methoxycinnamate] | 0.0 | 0.0 | – | – | – | – | 0 | 27.5 | 53 | – | – | – | – | – | – | –
3 | Vitamin B12 | 0.0 | 0.0 | 77.1% and 62.7% | 8.69 µM and 6.73 µM | – | 11.6 µM and 13.4 µM | – | – | – | – | – | – | – | – | – | –
4 | O=C(O)c1ccccc1Nc1cccc(C(F)(F)F)c1 [Flufenamic acid] | 0.0 | 0.0 | – | – | – | – | 71.9 | 10.9 | 61.5 | 8.69 | – | – | – | – | – | –
5 | CN(C)CCCSc1ccccc1NC(=O)/C=C/c1ccccc1 [Cinanserin] | 0.0 | 0.0 | – | – | – | – | 80.2 | 12.3 | 92 | 15.5 | – | – | – | – | – | –
6 | O=C(O)c1ccccc1NCCc1ccccc1 [Enfenamic acid] | 58.5 | 0.0 | – | – | – | – | 58 | – | 49.5 | 25.9 | 7.74 | – | – | – | – | –
7 | CC(=O)Oc1cccc2c1C(=O)c1c(OC(C)=O)cc(C(=O)O)cc1C2=O [Diacerein] | 0.0 | 35.2 | – | – | – | – | 72.9 | 17.3 | 63.2 | 15.5 | – | 30.8 | – | – | – | –
8 | O=S(=O)(O)c1ccc2[nH]c(-c3ccccc3)nc2c1 [Ensulizole] | 0.0 | 0.0 | – | – | – | – | – | – | – | – | – | – | 1.95 | 82.7 | 1.84 | 73.3
9 | Cc1cccc(/C=C/c2ccccc2)n1 [SIB 1893] | 0.0 | 0.0 | 96.2% | 12.3 µM | 105 | 15.5 µM | – | – | – | – | – | – | – | – | – | –
10 | CCC(C(=O)O)c1ccc(N2Cc3ccccc3C2=O)cc1 (centres unmarked) [Indobufen] | 0.0 | 0.0 | – | – | – | – | 86.3 | 7.74 | 85.8 | 6.52 | – | – | – | – | – | –
11 | c1ccc(CCNc2nc(-c3ccccc3)cs2)cc1 [Fanetizole] | 0.0 | 0.0 | – | – | – | – | 72.9 | 17.3 | 78.1 | 10.9 | – | – | – | – | – | –
12 | O=C(Oc1ccccc1)c1cccc(C(=O)Oc2ccccc2)c1 [Diphenyl isophthalate] | 0.0 | 0.0 | – | – | – | – | 104 | 4.73 | 92.8 | 6.68 | – | – | – | – | – | –
13 | N#CC1(c2ccc(NC(=O)c3cccnc3NCc3ccncc3)cc2)CCCC1 [Apatinib] | 0.0 | 0.0 | – | – | – | – | 57.9 | 24.5 | 61.2 | 19.5 | – | – | – | – | – | –
14 | O=C(O)c1cc([N+](=O)[O-])ccc1NCCCc1ccccc1 [5-Nitro-2-(3-phenylpropylamino)benzoic acid] | 0.0 | 0.0 | – | – | – | – | 82.1 | 13 | 82.9 | 9.75 | – | – | – | – | – | –
15 | O=C1c2ccccc2C(=O)c2c1ccc(O)c2O [Alizarin] | 0.0 | 0.0 | – | – | – | – | 47.9 | 21.8 | 40.9 | 30.8 | – | – | – | – | – | –
16 | O=C(OCc1ccccc1)c1ccc(O)cc1 [Benzylparaben] | 0.0 | 0.0 | – | – | – | – | 62.8 | 19.5 | 91.8 | 17.3 | – | – | – | – | – | –
17 | Cc1cccc(C#Cc2ccccc2)n1 [MPEP, 2-Methyl-6-(phenylethynyl)pyridine] | 0.0 | 0.0 | – | – | – | – | 118 | 5.18 | 98.6 | 5.81 | – | – | – | – | – | –
18 | COc1cccc(-c2ccc(NC(=O)C3=C(C(=O)O)CCC3)c(F)c2)c1 [Vidofludimus] | 0.0 | 0.0 | – | – | – | – | 101 | 3.66 | 101 | 2.91 | – | – | – | – | – | –

Reference: patent US10940188B2, “Compounds and methods for treatment and prevention of Flavivirus infection” (priority 2016, dated 2021)
